Data: patent US10053725B2, “In situ interaction determination” (President and Fellows of Harvard College, priority 2013, dated 2018)
Each block holds one molecule with its values, some of them ahead of it. Where no end group is shown, it is not given here.

Legend:
His6-Bcl-xL = target: T1, His6-Bcl-xL (Homo sapiens, UniProt Q07817); test: ISID with DNA-αHis and His6-tagged Bcl-xL; assay type: binding
T1 construct: His6-Bcl-xL (truncated C-terminus, amino acids 1 to 212); expressed in transfected cells; host or cells: HEK-293T (lysate)
T1 sequence (Q07817 3-212): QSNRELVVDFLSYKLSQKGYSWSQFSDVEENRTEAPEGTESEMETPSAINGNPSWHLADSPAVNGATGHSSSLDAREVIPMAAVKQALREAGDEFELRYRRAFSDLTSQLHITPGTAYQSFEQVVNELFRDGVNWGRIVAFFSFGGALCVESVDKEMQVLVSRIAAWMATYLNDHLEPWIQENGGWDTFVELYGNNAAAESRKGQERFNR

streptavidin (SA) [1] = target: T2, streptavidin (SA) (Streptomyces avidinii, UniProt P22629); test: Antibody-mediated ISID with DNA-αSA and streptavidin (qPCR, mock-library enrichment); assay type: binding
Description: (§1) In cases where recombinant SA or CAII was added to HeLa lysate at 0.01% wt, the protein content of the HeLa cell lysate was first estimated using the Modified Lowry Assay Kit (Thermo Scientific). HeLa cell lysate replaced water in the primer extension reaction mixture, and was added in volumes of 5.7-8.5 μL, with a maximum weight of 60 μg total protein added.

streptavidin (SA) [2] = target: T2, streptavidin (SA); settings: read-out: SA-iminobiotin Kd; cited from earlier work
[3] = target: T3, carbonic anhydrase II (CAII) (Homo sapiens, UniProt P00918, S2A); test: Antibody-mediated ISID with DNA-αCAII and CAII in HeLa lysate; assay type: binding; settings: T4 DNA polymerase; mock library DNA-GLCBS/DNA-desthiobiotin; 0.01% CAII in HeLa lysate
T3 construct: made in house; host or cells: E. coli BL21(DE3), pACA plasmid
Description: as §1

CAII-His6 = target: T4, CAII-His6 (Homo sapiens, UniProt P00918); test: ISID with DNA-αHis and His6-tagged CAII; assay type: binding
T4 construct: expressed in transfected cells; host or cells: HEK-293T (lysate)

SNAP-CAII or CAII-SNAP = target: T5, SNAP-CAII or CAII-SNAP (Homo sapiens, UniProt P00918, S2A); test: ISID in 293T cell lysate expressing SNAP-tagged CAII; assay type: binding; settings: 293T lysate expressing SNAP-CAII or CAII-SNAP; mixtures with DNA-desthiobiotin
T5 construct: expressed in transfected cells; host or cells: HEK-293T (lysate)

SNAP-CA = target: T6, SNAP-CA (Homo sapiens, UniProt P00918); test: Model library×library ISID with SNAP-tagged targets: CAII; assay type: binding; settings: 262 DNA-linked ligands × 259 DNA-linked targets; counts DNA-BG sample / DNA alone sample
T6 construct: expressed in transfected cells; host or cells: HEK-293T (lysate)

[4] = target: carbonic anhydrase II (CAII) (Homo sapiens, UniProt P00918); settings: read-out: CAII:GLCBS Kd; cited from earlier work
[5] = target: T7, SNAP-Bcl-xL or Bcl-xL-SNAP (Homo sapiens, UniProt Q07817); test: ISID in 293T cell lysate expressing SNAP-tagged Bcl-xL; assay type: binding; settings: mixtures of DNA-Bak/DNA-BakL78A/DNA-biotin
T7 construct: His6-Bcl-xL (truncated C-terminus, amino acids 1 to 212); expressed in transfected cells; host or cells: HEK-293T (lysate)
T7 sequence (Q07817 1-212): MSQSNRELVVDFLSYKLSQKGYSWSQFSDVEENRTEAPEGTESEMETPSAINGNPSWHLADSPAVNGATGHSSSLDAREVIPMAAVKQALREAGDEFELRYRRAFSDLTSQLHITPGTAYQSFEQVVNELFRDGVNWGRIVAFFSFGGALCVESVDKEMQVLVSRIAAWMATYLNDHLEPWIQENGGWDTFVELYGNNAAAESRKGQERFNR

Bcl-xL = Bcl-xL (Homo sapiens, UniProt Q07817); settings: cited from earlier work
Bcl-xL, sequence (Q07817 whole entry, species assumed, the tested form may be a part): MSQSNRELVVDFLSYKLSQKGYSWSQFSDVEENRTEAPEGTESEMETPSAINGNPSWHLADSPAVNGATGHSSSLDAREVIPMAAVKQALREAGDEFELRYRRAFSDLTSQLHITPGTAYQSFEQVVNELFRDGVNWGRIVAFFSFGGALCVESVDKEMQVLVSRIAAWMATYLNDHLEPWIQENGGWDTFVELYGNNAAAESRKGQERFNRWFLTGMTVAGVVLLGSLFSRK

SNAP-Bcl-xL = target: T8, SNAP-Bcl-xL (UniProt Q07817-1 1-212, SNAP-tag covalently labelled with O6-benzylguanine-linked DNA (DNA-BG)); test: model library x library ISID, pooled 293T lysates expressing SNAP-target fusions; sequence counts with DNA-BG divided by counts with DNA alone
T8 construct: also called N-terminally SNAP-tagged Bcl-xL; not shown: SNAP-tag from the pSNAPf vector (New England Biolabs)
T8 sequence (Q07817 1-212): as the sequence (Q07817 1-212) above

[6] = target: T9, His6-Bcl-xL (truncated C-terminus, amino acids 1 to 212) (UniProt Q07817 1-212); test: ISID with DNA-αHis in lysate of 293T cells expressing His6-Bcl-xL, mock library, restriction digest and PAGE
T9 construct: range 1-212
T9 sequence (Q07817 other isoform, or with tags, fused parts or gaps): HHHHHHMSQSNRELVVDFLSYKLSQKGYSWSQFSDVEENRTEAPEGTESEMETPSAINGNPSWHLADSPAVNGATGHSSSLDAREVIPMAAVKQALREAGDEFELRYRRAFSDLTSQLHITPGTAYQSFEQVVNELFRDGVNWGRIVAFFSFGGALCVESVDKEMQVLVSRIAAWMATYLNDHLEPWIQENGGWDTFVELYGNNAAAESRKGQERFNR

[7] = T4 DNA polymerase, 8-nt complementary region, mock library with DNA-GLCBS, SA 0.01% wt in HeLa lysate

Molecule: C[C@@H]1NC(=O)N[C@@H]1CCCCCC(=O)O [desthiobiotin]
ΔCT (streptavidin (SA) [1]; DNA-αSA, 0.01% SA in HeLa lysate, qPCR): 4.7 | enrichment of sequence (streptavidin (SA) [1]; [7]): ~1000 fold

Molecule: N=C1N[C@H]2[C@H](CS[C@H]2CCCCC(=O)O)N1 [iminobiotin]
Kd (streptavidin (SA) [2]): 13 µM

Molecule: O=C(O)CCCC[C@@H]1SC[C@@H]2NC(=O)N[C@@H]21 [biotin]
enrichment of sequence (streptavidin (SA) [1]; Klenow exo−, mixtures DNA-biotin/DNA-GLCBS, SA 0.01% wt in HeLa cell lysate): ~10 fold | enrichment of sequence (streptavidin (SA) [1]; [7]): ~1,000 fold | improvement in enrichment (streptavidin (SA) [1]; T4 DNA polymerase/8-nt vs Klenow exo−/6-nt complementary region): 100 fold

B1: BakL78A (72-87) peptide (peptide, UniProt Q16611 72-87, looked up)
peptide: GQVGRQAAIIGDDINR
modifications: also: conjugated to 3'-thiol-modified DNA via SM(PEG)2 crosslinker, site not given here
notes: range 72-87; also called DNA-BakL78A; 3i-BakL78A
enrichment factor (SNAP-Bcl-xL): 3.9

B2: Bad BH3 peptide (103-127) (peptide, UniProt Q92934 103-127, looked up)
peptide: NLWAAQRYGRELRRMSDEFVDSFKK
modifications: also: conjugated to 3'-thiol DNA via SM(PEG)2 crosslinker, attachment site not given here
notes: range 103-127; Used as a peptide-DNA conjugate in ISID; also called DNA-Bad; 3h-Bad
enrichment [6]: ~100 fold | enrichment factor (SNAP-Bcl-xL): 238

The next lines start with results.

ΔCT (His6-Bcl-xL; 293T cell lysate expressing His6-BclxL, vs DNA-GLCBS or DNA-biotin): 8 | ΔCT (His6-Bcl-xL; recombinant His6-Bcl-xL): 3 cycles
Molecule: DNA-Bad: DNA oligonucleotide linked to Bad BH3 peptide

enrichment of sequence [3]: 10 fold | enrichment of sequence (CAII-His6; 293T cell lysate expressing CAII-His6, undiluted, mock library): ~10 fold | enrichment of sequence (CAII-His6; transfected lysate diluted 1:10 into untransfected 293T lysate): ~100 fold | enrichment of sequence (CAII-His6; transfected lysate diluted 1:100 into untransfected lysate, approximating 3 nM CAII-His6): ~10 fold | enrichment of sequence (SNAP-CAII or CAII-SNAP): ~100 fold | enrichment factor (SNAP-CA): 178.3
Molecule: Gly-Leu-CBS [GLCBS]
Kd [4]: 40 nM

enrichment of sequence [5]: no enrichment
Molecule: BakL78A: BakL78A (72-87) peptide, a weakly binding mutant of the Bak peptide (GQVGRQAAIIGDDINR; not fully specified)
Kd (Bcl-xL): 270 µM
